In PubChem BioAssay AID179 (DTP/NCI, 2004):
Active and inactive are the calls of the source.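 Rule for the calls: active = compounds giving half or more protection of infected cells from virus-caused growth loss, again on retest; inactive = the rest.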

System: CEM cells HIV-1 protection, formazan growth assay
Experiment: NCI AIDS Antiviral Assay
Conditions: for IC50: measured here: growth of uninfected CEM cells
In short: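 Screen of anti-HIV-1 activity in human CEM cells using a formazan-based growth measurement at five drug concentrations. Hits with 50% or greater protection were repeated, and confirmation required reproducible complete protection.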

| Compound | EC50 [µM] | IC50 [µM] | outcome |
| --- | --- | --- | --- |
| O=C(O)C(CSC(c1ccccc1)(c1ccccc1)c1ccccc1)N=Cc1cccs1 (configuration not stated) | > 200 | 2.04 |  |
| COC(=O)c1cc(C(CCl)c2cc(C(=O)OC)c(O)cc2C)c(C)cc1O | > 200 | 112 |  |
| O=C(CCc1cc(-c2ccccc2)n[nH]1)Nc1ccccc1[N+](=O)[O-] |  |  | inactive |
| O=C(/C=C/c1ccccc1)c1ccc(Sc2ccccc2)cc1 | > 2 | 0.107 |  |
| COC(=O)C12c3ccccc3C(c3ccccc31)c1c(N=O)ccc(NO)c12 | > 19.5 | > 19.5 |  |
| Cc1cc(NS(=O)(=O)c2ccc(Nc3c4ccccc4nc4c(C(=O)Nc5ccc(S(=O)(=O)N=C(N)N)cc5)cccc34)cc2)no1 | 18.6 | 53.7 |  |
| O=S(c1ccccc1)C1CC2CC3(CCC21O)OCCO3 (configuration not stated) | > 200 | > 200 |  |
| OC(c1ccccc1)(c1ccccc1)C1CC1c1ccncc1 (configuration not stated) | > 200 | 117 |  |
| Nc1cc(=O)[nH]c(=S)n1-c1ccc(Cl)cc1 | > 200 | > 200 |  |
| C#CCn1c(=O)c2cc(OC)c(OC)cc2n(CC#C)c1=O |  |  | inactive |
| C/C(C=C(C#N)C#N)=C\c1cccc(F)c1 | > 123 | 14.1 |  |
| NS(=O)(=O)c1ccc(CNC(=O)c2ccccc2SC(=O)CCC[n+]2ccccc2)cc1 | 4.79 | 13.8 |  |
| O=C1Cc2c(-c3ccccc3)cc(-c3ccc(Cl)cc3)nc2-c2ccccc2N1 | > 200 | 93.3 |  |
| N#Cc1c(-c2ccccc2)[nH]c(=O)n(C2OC(CO)C(O)C(O)C2O)c1=O (configuration not stated) | > 200 | > 200 | inactive |
| CC(=O)NC1C(OCc2ccccc2)OC(CO)C(O)C1OCC(=O)NC(C)C(=O)NC(CCC(=O)NCCCCCNc1c2ccccc2nc2cccc([N+](=O)[O-])c12)C(N)=O (configuration not stated) | > 200 | 0.0776 |  |
| COc1ccc(-c2oc3c(CC(=O)O)cccc3c(=O)c2OC)cc1 | > 200 | 112 |  |
| CSc1nc(C#N)c(/N=C\N(C)C)n1C | > 200 | > 200 |  |
| O=C1C=C(N2CCCCC2)c2cc(N3CCCCC3)ncc2C1=O |  |  | inactive |

| Compound | EC50 [µM] | IC50 [µM] | outcome |
| --- | --- | --- | --- |
| COc1ccc(N=Nc2c(N)nn(C)c2N)cc1 |  |  | inactive |
| CCOC(=O)C1C[C@H]2CO[C@H](c3ccccc3)N2C1=O (some centres not stated) | > 200 | > 200 |  |
| Cc1cccc(-n2c(C)nc3ccc(NC(=S)Nc4ccccc4)cc3c2=O)c1 | > 200 | 110 |  |
| COc1ccc(C(CC(C)=O)c2c(O)c3ccccc3oc2=O)cc1OC (configuration not stated) | > 200 | > 200 |  |
| COc1ccc(C(=O)/C=C/c2ccc(OCC(=N)N)cc2)cc1 | > 200 | 9.77 |  |
| CC1(C)[C@H]2CC[C@]1(C)[C@H](OC(=O)NNC(=O)O[C@@H]1C[C@@H]3CC[C@@]1(C)C3(C)C)C2 | > 200 | 12.6 |  |
| Cc1ccc(S(=O)(=O)N2CCC(C(=O)O)=Cc3c2[nH]c(=O)n(-c2ccccc2)c3=O)cc1 | > 288 | > 288 |  |
| Cc1cc2ncn(C3CCCCO3)c2cc1C (configuration not stated) | > 200 | > 200 |  |
| O=C(O)C1CCSS1 (configuration not stated) | > 457 | 263 |  |
| COC(=O)C1=C(C(=O)OC)C23CC4CCC2(C(=O)C1O3)C4(C)C (configuration not stated) | > 251 | 16.6 |  |
| COC(=O)C1CCCCCCCCCCC12SCCCS2 (configuration not stated) | > 200 | > 200 |  |
| O=C1CN(C(=O)C2CCCN2C(=O)C2CCCN2)C(=O)CN1 (configuration not stated) | > 200 | > 200 |  |
| Cc1c2c(n(CC(c3ccccc3)c3ccccc3)c1C)NN=C(C#N)S2(=O)=O | > 200 | > 100 |  |
| COC(=O)C(C(=O)C(=O)Nc1cccc(OC)c1)c1cnc2ccccc2n1 (configuration not stated) | > 69.2 | > 69.2 |  |
| CCOP(=O)(OCC)C(N)C(C)C (configuration not stated) | > 513 | > 513 |  |
| C1CSCCSCCS1 | > 39.8 | > 39.8 |  |
| O=C(Nc1ccn(C2CCC(CO)O2)c(=O)n1)c1ccccc1 (configuration not stated) | 0.741 | > 200 |  |
